According to patent US4994258A, “Gamma emitting, CCK-A antagonists for pancreatic imaging” (Merck & Co., Inc., priority 1990, dated 1991):

What was measured:
[1] = In vivo distribution necropsy after i.v. injection; design: species or system rats
Protocol: Animals were euthanized at various times (15 min to 2 hr), and organs of interest removed for assay. Biopsy samples were counted in an autogamma counter (50% counting efficiency) for ^123 I labeled radioligand. For the tritiated radioligand, in rats and rabbits, 10 to 50 mg samples of pancreas and, in rats, several regions of CNS (cortex, interpeduncular nucleus, and substantial nigra) were solubilized in protosol® (New England Nuclear). Liquid scintillation cocktail was added and the samples were dark adapted for 16 hours, then counted in a liquid scintillation counter with automatic quench correction. Results were the average of at least five animals and were expressed as % dose/g (wet weight).

CCK-A receptors [2] = tested on: CCK-A receptors; design: species or system rats; settings: rat, in vivo, iv
Protocol: Rats under ketamine/acepromazine anesthesia were positioned for either anterior or posterior dynamic (128×128×16) images. A large-field-of-view gamma camera with a low energy, all purpose collimator, peaked for ^123 I, was utilized. Thirty one-minute images were acquired immediately post intravenous administration of 0.2 mCi of [^123 I]3(S)-1,3-dihydro-3-(4-iodobenzoylamino)-1-methyl -5-phenyl-2H-1,4-benzodiazepin-2-one. To enable visualization of the liver alone, an unblocked rat was injected with 0.125 mCi of ^99m Tc-albumin colloid. A static one-minute image (128×128×16) was obtained then, without moving the animal, the dose of [^123 I]3(S)-1,3-dihydro-3-(4-iodobenzoylamino) -1-methyl-5-phenyl-2H-1,4-benzodiazepin-2-one was injected and imaging proceeded as described. Rabbits and African green monkeys under ketamine/ xylazine anesthesia were positioned for an anterior view and imaged as the rats were after an intravenous injection of 0.5 mCi of [^123 I] (S)-1,3-dihydro-3-(4-iodobenzoylamino) -1-methyl-5-phenyl-2H-1,4-benzodiazepin-2-one for rabbits, and 1.3 mCi for monkeys.
All blocked studies utilized a coinjection of 1 mg/kg of (R)-N-(2,3-dihydro-1-methyl-2-oxo-5-phenyl-1H-1, 4-benzodiazepin-3-yl)-1H-indole-2-carboxamide. […] Reduced data were expressed as count rates in regions of interest (ROI) as a function of time.

[3] = molecular target: T1, CCK-A receptor from rat pancreas (Rattus norvegicus, UniProt P30551); assay: In vitro binding assay, saturation studies with radioligand, rat pancreas
T1 construct: Pancreatae were removed from either rats or rabbits immediately after euthanasia; from tissue; host or cells: rat pancreas homogenate
T1 sequence (P30551 1-444): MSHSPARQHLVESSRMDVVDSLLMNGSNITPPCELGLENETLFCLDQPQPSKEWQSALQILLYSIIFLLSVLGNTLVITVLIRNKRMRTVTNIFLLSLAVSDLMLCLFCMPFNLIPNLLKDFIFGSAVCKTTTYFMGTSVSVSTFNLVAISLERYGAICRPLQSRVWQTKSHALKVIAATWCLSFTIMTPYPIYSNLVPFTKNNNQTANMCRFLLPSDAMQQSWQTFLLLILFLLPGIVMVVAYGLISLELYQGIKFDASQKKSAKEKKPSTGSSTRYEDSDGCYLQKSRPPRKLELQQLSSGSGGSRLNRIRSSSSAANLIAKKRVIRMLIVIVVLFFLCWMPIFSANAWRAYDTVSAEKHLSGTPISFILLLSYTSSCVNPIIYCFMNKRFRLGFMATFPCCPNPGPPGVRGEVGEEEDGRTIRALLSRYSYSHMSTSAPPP
Protocol: Pancreatae were removed from either rats or rabbits immediately after euthanasia and placed in ice-cold buffer (50 mM Tris·HCl (pH 7.4), 5 mM MgCl2, 5 mM DTT, 2 mg/ml BSA and 0.14 mg/ml bacitracin). The tissue (0.5 g pancreas) was homogenized in 200 ml of the ice-cold Tris buffer. Aliquots (0.1 ml) were added to various concentrations of radioligand (5 ml) in Tris buffer, incubated for 60 min at ambient temperatures, and filtered over GC-filters. After washing with ice cold Tris buffer (2×5 ml), the filters were air dried and counted in 10 ml of liquid scintillation cocktail (PCS, Amersham) in a Beckman LSC-5000. Data were converted to Molar concentrations and analyzed via SCAFIT, and data are presented by the method of Scatchard. The specific activity of the radioiodinated product was determined as that which provided the same concentration of receptor as obtained with the tritiated ligand.

CCK-A receptors [4] = assay: In vivo distribution after coinjection of unlabeled carboxamide (receptor-mediated binding); design: species or system rats; settings: rats
Protocol: (§1) Animals were euthanized at various times (15 min to 2 hr), and organs of interest removed for assay. […] […] Liquid scintillation cocktail was added and the samples were dark adapted for 16 hours, then counted in a liquid scintillation counter with automatic quench correction. Results were the average of at least five animals and were expressed as % dose/g (wet weight).

[5] = as above; design: species or system rats; settings: rat, iv
Protocol: as §1

CN1C(=O)[C@@H](NC(=O)c2ccc([123I])cc2)N=C(c2ccccc2)c2ccccc21 [[^123 I]3(S)-1,3-Dihydro-3-(4-iodobenzoylamino)-1-methyl-5-phenyl-2 H-1,4-benzodiazepin-2-one]
tissue uptake at 0.5 h ([1]; rat, blood, iv, 10 uCi, blood, 30 min post-i.v. injection of 10 μCi, 95% confidence intervals (Table 4), read-out: % DOSE/GRAM, Blood): 0.307 ± 0.051 %ID/g | tissue uptake at 0.5 h ([1]; rat, descending colon, iv, 10 uCi, descending colon, 30 min post-i.v. injection of 10 μCi, 95% confidence intervals (Table 4), read-out: % DOSE/GRAM, Descending Colon): 0.418 ± 0.073 %ID/g | tissue uptake at 0.5 h ([1]; rat, liver, iv, 10 uCi, liver, 30 min post-i.v. injection of 10 μCi, 95% confidence intervals (Table 4), read-out: % DOSE/GRAM, Liver): 1.96 ± 0.56 %ID/g | tissue uptake at 0.5 h ([1]; rat, muscle, iv, 10 uCi, muscle, 30 min post-i.v. injection of 10 μCi, 95% confidence intervals (Table 4), read-out: % DOSE/GRAM, Muscle): 0.319 ± 0.086 %ID/g | tissue uptake at 0.25 h ([1]; rat, pancreas, iv, 10 uCi, pancreas, 15 min, i.v. injection, error range 95% confidence intervals (Table 2), read-out: % DOSE/GRAM in rat pancreas): 2.07 ± 0.46 %ID/g | tissue uptake at 0.5 h ([1]; rat, pancreas, iv, 10 uCi, pancreas, 30 min, i.v. injection, error range 95% confidence intervals (Table 2), read-out: % DOSE/GRAM in rat pancreas): 1.9 ± 0.71 %ID/g | tissue uptake at 0.5 h ([1]; rat, pancreas, iv, 10 uCi, pancreas, 30 min post-i.v. injection of 10 μCi, 95% confidence intervals (Table 4), read-out: % DOSE/GRAM, Pancreas): 2.54 ± 0.93 %ID/g | tissue uptake at 1 h ([1]; rat, pancreas, iv, 10 uCi, pancreas, 60 min, i.v. injection, error range 95% confidence intervals (Table 2), read-out: % DOSE/GRAM in rat pancreas): 1.14 ± 0.13 %ID/g | tissue uptake at 0.5 h ([1]; rat, pyloric sphincter, iv, 10 uCi, P. Sphincter (pyloric), 30 min post-i.v. injection of 10 μCi, 95% confidence intervals (Table 4), read-out: % DOSE/GRAM, P. Sphincter): 1.25 ± 0.33 %ID/g | tissue uptake at 0.5 h ([1]; rat, sigmoidal colon, iv, 10 uCi, sigmoidal colon, 30 min post-i.v. injection of 10 μCi, 95% confidence intervals (Table 4), read-out: % DOSE/GRAM, Sigmoidal Colon): 0.5 ± 0.13 %ID/g | tissue uptake at 0.5 h ([1]; rat, transverse colon, iv, 10 uCi, transverse colon, 30 min post-i.v. injection of 10 μCi, 95% confidence intervals (Table 4), read-out: % DOSE/GRAM, Transverse Colon): 0.5 ± 0.18 %ID/g | ratio of activity in the pancreas to that in the blood and liver ([1]; rats): suggests sufficient localization to provide in vivo images of the pancreas | localization in the pancreas (imaging and biopsied samples) (CCK-A receptors [2]): did localize in the pancreas by a receptor-mediated mechanism | affinity for the CCK-A receptor relative to [^3 H](R)-N-(2,3 dihydro-1-methyl-2-oxo-5-phenyl-1H-1,4-benzodiazepin-3-yl)-1H-indole-2-carboxamide (fold lower) [3]: 3 -fold lower | specific localization in the region of the pyloric sphincter (CCK-A receptors [4]): specific localization is obtained in the region of the pyloric sphincter | blockade of localization in the duodenum and colon (CCK-A receptors [4]; duodenum and colon): significant blockade of localization was not demonstrated | tissue uptake at 0.5 h ([5]; blood, 0.4 mg/kg, blood, 30 min post-i.v. coinjection of 10 μCi with 0.4 mg/kg (R)-indole-2-carboxamide, 95% confidence intervals (Table 5), read-out: % DOSE/GRAM, Blood, coinjection): 0.236 ± 0.03 %ID/g | tissue uptake at 0.5 h ([5]; P. Sphincter (pyloric), 30 min post-i.v. coinjection of 10 μCi with 0.4 mg/kg (R)-indole-2-carboxamide, 95% confidence intervals (Table 5), read-out: % DOSE/GRAM, P. Sphincter, coinjection): 0.705 ± 0.19 %ID/g | tissue uptake at 0.5 h ([5]; descending colon, 30 min post-i.v. coinjection of 10 μCi with 0.4 mg/kg (R)-indole-2-carboxamide, 95% confidence intervals (Table 5), read-out: % DOSE/GRAM, Descending Colon, coinjection): 0.434 ± 0.12 %ID/g | tissue uptake at 0.5 h ([5]; sigmoidal colon, 30 min post-i.v. coinjection of 10 μCi with 0.4 mg/kg (R)-indole-2-carboxamide, 95% confidence intervals (Table 5), read-out: % DOSE/GRAM, Sigmoidal Colon, coinjection): 0.6 ± 0.47 %ID/g | tissue uptake at 0.5 h ([5]; transverse colon, 30 min post-i.v. coinjection of 10 μCi with 0.4 mg/kg (R)-indole-2-carboxamide, 95% confidence intervals (Table 5), read-out: % DOSE/GRAM, Transverse Colon, coinjection): 0.384 ± 0.06 %ID/g | tissue uptake at 0.5 h ([5]; liver, 0.4 mg/kg, liver, 30 min post-i.v. coinjection of 10 μCi with 0.4 mg/kg (R)-indole-2-carboxamide, 95% confidence intervals (Table 5), read-out: % DOSE/GRAM, Liver, coinjection): 1.69 ± 0.39 %ID/g | tissue uptake at 0.5 h ([5]; muscle, 0.4 mg/kg, muscle, 30 min post-i.v. coinjection of 10 μCi with 0.4 mg/kg (R)-indole-2-carboxamide, 95% confidence intervals (Table 5), read-out: % DOSE/GRAM, Muscle, coinjection): 0.271 ± 0.04 %ID/g | tissue uptake at 0.25 h ([5]; pancreas, 0.4 mg/kg, pancreas, 15 min, i.v. coinjection with 0.4 mg/kg (R)-indole-2-carboxamide, 95% confidence intervals (Table 3), read-out: % DOSE/GRAM in rat pancreas, coinjection): 0.574 ± 0.065 %ID/g | tissue uptake at 0.5 h ([5]; pancreas, 0.4 mg/kg, pancreas, 30 min, i.v. coinjection with 0.4 mg/kg (R)-indole-2-carboxamide, 95% confidence intervals (Table 3), read-out: % DOSE/GRAM in rat pancreas, coinjection): 0.727 ± 0.18 %ID/g | tissue uptake at 0.5 h ([5]; pancreas, 0.4 mg/kg, pancreas, 30 min post-i.v. coinjection of 10 μCi with 0.4 mg/kg (R)-indole-2-carboxamide, 95% confidence intervals (Table 5), read-out: % DOSE/GRAM, Pancreas, coinjection): 0.9 ± 0.22 %ID/g | tissue uptake at 1 h ([5]; pancreas, 0.4 mg/kg, pancreas, 60 min, i.v. coinjection with 0.4 mg/kg (R)-indole-2-carboxamide, 95% confidence intervals (Table 3), read-out: % DOSE/GRAM in rat pancreas, coinjection): 0.472 ± 0.085 %ID/g
